The values that follow come from US20100297145A1, “Apoptosis promoter, cell proliferation inhibitor, prophylactic/therapeutic agent for cancer, screening method for the promoter, inhibitor or agent” (priority 2005, published 2010).

What all share (type): cell-based, human
In data set [1] the test system is DU145/PCA-1. The experiment in a line: Cell growth of PCA-1-overexpressing cell line with EGF stimulation (MTS reagent). The conditions noted are these: EGF 10 ng/ml, 36 hours, serum-free, pretreatment with ERK inhibitor. The procedure: (§1) The human prostate cancer cell line DU145 (purchased from ATCC) was cultured in RPMI medium (in the presence of 10% serum) and used. The human PCA-1 gene was cleaved out from a PCA-1 vector, and this was inserted into pIRES/Neo, which is a vector that encodes the neomycin resistance gene (hereinafter pIRES/Neo/PCA-1). […] For control, a clone (DU145/Neo) incorporating an empty vector, and cultured under the same conditions, was used.
Experiments were performed using the MTS [(3-(4,5-dimethylthiazol-2-yl)-5-(3-carboxymethoxyphenyl)-2-(4-sulphonyl)-2H-tetrazolium, inner salt] reagent (Promega, Tokyo, Japan) in accordance with the attached protocol.
Cell growth for 36 hours under serum-free conditions was examined.
In general terms: Formazan colour is commonly taken as a measure of viable cells.

Data set [2] relates to DU145/PCA-1. The experiment in a line: Paclitaxel-induced apoptosis quantified by flowcytometry. As for the experimental part:
as §1
A control cell line (DU145/Neo) and DU145/PCA-1 were stimulated with paclitaxel (100 nM); 48 hours later, apoptosis was quantified using flowcytometry.

The test system of data set [3] is DU145. Description: WST-1 method, growth of DU145 transfected with siRNA. As for the experimental part:
(§2) The human prostate cancer cell line DU145 (purchased from ATCC) was cultured in RPMI1640 medium (in the presence of 10% fetal bovine serum) and used.
(§3) DU145 was transiently transfected with siRNAs against PCA-1 ([…] (SEQ ID NO:4), […] (SEQ ID NO:5), […] (SEQ ID NO:6)) using DharmaFECT 1 (GE Healthcare Bioscience.). Expression suppression and knockdown effects were confirmed by real-time PCR and PCA-1 quantitative ELISA method. Control siRNA ([…] (SEQ ID NO:7)) was purchased from GE Healthcare Bioscience.
Two days after DU145 was transfected with siRNA, the cells were harvested, and 100 μl of the cells were sown to a 96-well plate at 1×10^4/ml. Thereafter, 10 μl of a 1:9 mixture of a 1-methoxy PMS (1-methoxy-5-methylphenazinium.methylsulfate) solution and a WST-1 (2-(4-Iodophenyl)-3-(4-nitrophenyl)-5-(2,4-disulfophenyl)-2H-tetrazolium, monosodium salt) solution was added to each well every 24 hours; 1 hour later, absorbance was measured at 450 nm. As the control wavelength, 630 nm was used. The day of the start of transfection is designated as day 0.

The test system of data set [4] is DU145. Description: Apoptosis analysis (propidium iodide, flowcytometer) of DU145 transfected with siRNA. The procedure:
as §2, §3
After DU145 was transfected with PCA-1 siRNA, the cells were harvested and fixed with ethanol. Thereafter, the cells were stained with propidium iodide, and the ratio of apoptosis cells was analyzed using a flowcytometer.

The test system of data set [5] is DU145/PCA-1. Description: TRAIL-induced apoptosis analyzed by flowcytometry. The following applies: TRAIL 50 ng/ml, 24 hours. The procedure: as §1
TRAIL is drawing attention as a new-generation anticancer agent for prostate cancer, and it has been reported that FLIP acts suppressively on the mechanism therefor.

Turning to `N#CC(=C(/N)Sc1ccccc1N)/C(C#N)=C(\N)Sc1ccccc1N` [U0126], in the data set on DU145/PCA-1 [1], the “effect of pretreatment on EGF-stimulated growth increase of DU145/PCA-1” value was “inhibited (cancelled)”. Moreover, the “effect on the paclitaxel-induced apoptosis inhibitory effect of PCA-1” value with DU145/PCA-1 [2] (DU145/PCA-1, paclitaxel 100 nM, with ERK inhibitor) is on record as “cancelled”.
For the molecule `CC(=O)O[C@H]1C(=O)[C@@]2(C)[C@H]([C@H](OC(=O)c3ccccc3)[C@]3(O)C[C@H](OC(=O)[C@H](O)[C@@H](NC(=O)c4ccccc4)c4ccccc4)C(C)=C1C3(C)C)[C@]1(OC(C)=O)CO[C@@H]1C[C@@H]2O` [paclitaxel], the “paclitaxel-induced apoptosis in DU145/PCA-1 compared with control strain (DU145/Neo)” value in the data set with DU145/PCA-1 [2] (paclitaxel 100 nM, 48 hours) is “significantly inhibited”.
As to “Control siRNA: Control siRNA (auccgcgcgauaguacgua (SEQ ID NO:7)) purchased from GE Healthcare Bioscience (AUCCGCGCGAUAGUACGUA; listed as RNA, chemistry not given here)”, the “absorbance relative to the absorbance on day 3 written as 1” value with DU145 [3] (DU145, Day 3) is on record as 1; with DU145 [3] (DU145, Day 4), 1.99; in the data set on DU145 [3] (DU145, Day 5), 3.98; in the data set on DU145 [3] (DU145, Day 6), 7.25; in the data set on DU145 [3] (DU145, Day 7) it was 11.91; in the data set on DU145 [3] (DU145, Day 8) it was 12.90. For the same molecule, the “growth of DU145 over time (in words)” value with DU145 [3] (DU145 transfected cells, WST-1) is “remarkable growth”. Also, the “ratio of apoptosis cells” value is 0.98% in the data set on DU145 [4] (DU145, Day 2); 1.96% with DU145 [4] (DU145, Day 3); 5.00% in the data set on DU145 [4] (DU145, Day 4); 1.88% with DU145 [4] (DU145, Day 5).

B1: TRAIL: tumor necrosis factor-related apoptosis-inducing ligand (protein, UniProt P50591 1-281, looked up)
Tumor necrosis factor ligand …: MAMMEVQGGPSLGQTCVLIVIFTVLLQSLCVAVTYVYFTNELKQMQDKYSKSGIACFLKEDDSYWDPNDEESMNSPCWQVKWQLRQLVRKMILRTSEETISTVQEKQQNISPLVRERGPQRVAAHITGTRGRSNTLSSPNSKNEKALGRKINSWESSRSGHSFLSNLHLRNGELVIHEKGFYYIYSQTYFRFQEEIKENTKNDKQMVQYIYKYTSYPDPILLMKSARNSCWSKDAEYGLYSIYQGGIFELKENDRIFVSVTNEHLIDMDHEASFFGAFLVG
Turning to B1, the “apoptosis induction in DU145/PCA-1 compared with control (DU145/Neo)” value in the data set with DU145/PCA-1 [5] is listed as “significantly inhibited”.
